# System: human LINE-1
# Test: Human LINE-1 retrotransposition assay (HeLa cell-based dual-luciferase reporter)
# Details: Homo sapiens, HeLa, 72 h, Human LINE-1 activity inhibition; HeLa cells, reporter plasmid pYX017, Firefly/Renilla, 72 h incubation
# Summary of the method: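 HeLa cells transfected with pYX017 dual-luciferase L1 reporter and treated with serially diluted compound (0.2% DMSO final) for 72 h at 37° C. Relative L1 activity as Firefly/Renilla ratio; IC50 from four-parameter logistic fit.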
row,Compound,IC50 [µM]
1,"C#C[C@]1(CO)O[C@H](n2cc(Br)c(=O)[nH]c2=O)C[C@@H]1O [compound 53, 5-bromo-1-((2S,4S,SR)-5-ethynyl-4-hydroxy-5-(hydroxymethyl)tetrahydrofuran-2-yl)pyrimidine-2,4(1H,3H)-dione]",> 50
2,"C#C[C@]1(CO)O[C@H](n2cc(C)c(N)nc2=O)C[C@@H]1O [compound 56, 4-amino-1-((2S,4S,5R)-5-ethynyl-4-hydroxy-5-(hydroxymethyl)tetrahydrofuran-2-yl)-5-methylpyrimidin-2(1H)-one]",> 50
3,"C#C[C@@]1(CO)C=C[C@H](n2cc(OC(F)F)c(=O)[nH]c2=O)O1 [compound 57, 5-(difluoromethoxy)-1-((2R,5R)-5-ethynyl-5-(hydroxymethyl)-2,5-dihydrofuran-2-yl)pyrimidine-2,4(1H,3H)-dione]",> 50
4,"C#C[C@]1(CO)OC(n2cc(C#N)c(=O)[nH]c2=O)C[C@@H]1O (stereo partly drawn) [compound 58, 1-((4S,5R)-5-ethynyl-4-hydroxy-5-(hydroxymethyl)tetrahydrofuran-2-yl)-2,4-dioxo-1,2,3,4-tetrahydropyrimidine-5-carbonitrile]",> 50
5,"C#C[C@]1(CO)OC(n2cc(OC)c(=O)[nH]c2=O)C[C@@H]1O (stereo partly drawn) [compound 59, 1-((4S,5R)-5-ethynyl-4-hydroxy-5-(hydroxymethyl)tetrahydrofuran-2-yl)-5-methoxypyrimidine-2,4(1H,3H)-dione]",20.9
6,"C#C[C@]1(CO)OC(n2cc(Br)c(N)nc2=O)C[C@@H]1O (stereo partly drawn) [compound 60, 4-amino-5-bromo-1-((4S,5R)-5-ethynyl-4-hydroxy-5-(hydroxymethyl)tetrahydrofuran-2-yl)pyrimidin-2(1H)-one]",5.65
7,"C#C[C@]1(CO)OC(n2cnc3c(OC)ncnc32)C[C@@H]1O (stereo partly drawn) [compound 61, (2R,3S)-2-ethynyl-2-(hydroxymethyl)-5-(6-methoxy-9H-purin-9-yl)tetrahydrofuran-3-ol]",7.43
8,"C=C[C@]1(CO)O[C@H](n2cc(C)c(=O)[nH]c2=O)C[C@@H]1O [compound 63, 1-((2S,4S,5R)-4-hydroxy-5-(hydroxymethyl)-5-vinyltetrahydrofuran-2-yl)-5-methylpyrimidine-2,4(1H,3H)-dione]",> 12.5
9,"C=C[C@]1(CO)O[C@H](n2cc(Br)c(=O)[nH]c2=O)C[C@@H]1O [compound 65, 5-bromo-1-((2S,4S,5R)-4-hydroxy-5-(hydroxymethyl)-5-vinyltetrahydrofuran-2-yl)pyrimidine-2,4(1H,3H)-dione]",21.9
10,"C=C[C@]1(CO)OC(n2cc(OC)c(=O)[nH]c2=O)C[C@@H]1O (stereo partly drawn) [compound 66, 1-((4S,5R)-4-hydroxy-5-(hydroxymethyl)-5-vinyltetrahydrofuran-2-yl)-5-methoxypyrimidine-2,4(1H,3H)-dione]",0.738
11,"C=C[C@]1(CO)OC(n2cc(Br)c(N)nc2=O)C[C@@H]1O (stereo partly drawn) [compound 67, 4-amino-5-bromo-1-((4S,5R)-4-hydroxy-5-(hydroxymethyl)-5-vinyltetrahydrofuran-2-yl)pyrimidin-2(1H)-one]",0.004
12,"CC[C@]1(CO)O[C@H](n2cc(C)c(=O)[nH]c2=O)CC1O (stereo partly drawn) [compound 71, 1-((2S,5R)-5-ethyl-4-hydroxy-5-(hydroxymethyl)tetrahydrofuran-2-yl)-5-methylpyrimidine-2,4(1H,3H)-dione]",1.6
13,"C#C[C@]1(CO)O[C@H](n2cnc3c(N)nc(N)nc32)C[C@@H]1O [compound 72, (2R,3S,5S)-5-(2,6-diamino-9H-purin-9-yl)-2-ethynyl-2-(hydroxymethyl)tetrahydrofuran-3-ol]",23.4
14,"C#C[C@@]1(CO)C=C[C@H](n2cc(SC(F)(F)F)c(=O)[nH]c2=O)O1 [compound 73, 1-((2R,5R)-5-ethynyl-5-(hydroxymethyl)-2,5-dihydrofuran-2-yl)-5-((trifluoromethyl)thio)pyrimidine-2,4(1H,3H)-dione]",> 50
15,"C#C[C@]1(CO)O[C@H](n2cnc3c(N)ncnc32)C[C@@H]1O [compound 80, (2R,3S,5S)-5-(6-amino-9H-purin-9-yl)-2-ethynyl-2-(hydroxymethyl)tetrahydrofuran-3-ol]",3.7
16,"C#C[C@]1(CO)OC(n2cnc3c(O)ncnc32)C[C@@H]1O (stereo partly drawn) [compound 81, 9-((4S,5R)-5-ethynyl-4-hydroxy-5-(hydroxymethyl)tetrahydrofuran-2-yl)-9H-purin-6-ol]",4.4
17,"C#C[C@]1(CO)O[C@H](n2cnc3c(NC4CC4)nc(N)nc32)C[C@@H]1O [compound 83, (2R,3S,5S)-5-(2-amino-6-(cyclopropylamino)-9H-purin-9-yl)-2-ethynyl-2-(hydroxymethyl)tetrahydrofuran-3-ol]",0.429
18,"C#C[C@]1(CO)O[C@H](n2cnc3c(NC4CC4)nc(F)nc32)C[C@@H]1O [compound 84, (2R,3S,5S)-5-(6-(cyclopropylamino)-2-fluoro-9H-purin-9-yl)-2-ethynyl-2-(hydroxymethyl)tetrahydrofuran-3-ol]",14
19,"C#C[C@]1(CO)O[C@@H](n2cnc3c(NC4CC4)nc(F)nc32)C[C@@H]1O [compound 85, (2R,3S,5R)-5-(6-(cyclopropylamino)-2-fluoro-9H-purin-9-yl)-2-ethynyl-2-(hydroxymethyl)tetrahydrofuran-3-ol]",0.124
20,"C#C[C@]1(CO)O[C@@H](n2cnc3c(NC4CC4)ncnc32)C[C@@H]1O [compound 86, (2R,3S,5R)-5-(6-(cyclopropylamino)-9H-purin-9-yl)-2-ethynyl-2-(hydroxymethyl)tetrahydrofuran-3-ol]",3.4
21,"C=C[C@]1(CO)O[C@H](n2cnc3c(O)nc(N)nc32)C[C@@H]1O [compound 87, 2-amino-9-((2S,4S,5R)-4-hydroxy-5-(hydroxymethyl)-5-vinyltetrahydrofuran-2-yl)-9H-purin-6-ol]",0.173
22,"C=C[C@]1(CO)O[C@H](n2ccc(N)nc2=O)C[C@@H]1O [compound 89, 4-amino-1-((2S,4S,5R)-4-hydroxy-5-(hydroxymethyl)-5-vinyltetrahydrofuran-2-yl)pyrimidin-2(1H)-one]",1.28
23,"C#C[C@]1(CO)O[C@@H](N2C=NC3C(NC)=NC(F)=NC32)C[C@@H]1O (stereo partly drawn) [compound 93, (2R,3S,5R)-2-ethynyl-5-(2-fluoro-6-(methylamino)-4,5-dihydro-9H-purin-9-yl)-2-(hydroxymethyl)tetrahydrofuran-3-ol]",15
24,"Cc1cn([C@@H]2C[C@@H](O)[C@H](CO)O2)c(=O)[nH]c1=O [compound 95, 1-((2S,4R,5S)-4-hydroxy-5-(hydroxymethyl)tetrahydrofuran-2-yl)-5-methylpyrimidine-2,4(1H,3H)-dione]",> 50
25,"C#C[C@]1(CO)O[C@@H](n2cnc3c(OC)nc(N)nc32)C[C@@H]1O [compound 101, (2R,3S,5R)-5-(2-amino-6-methoxy-9H-purin-9-yl)-2-ethynyl-2-(hydroxymethyl)tetrahydrofuran-3-ol]",0.259
26,"C=C[C@]1(CO)O[C@H](Nc2[nH]c(=O)ncc2Br)C[C@@H]1O [compound 104, 5-bromo-6-(((2S,4S,5R)-4-hydroxy-5-(hydroxymethyl)-5-vinyltetrahydrofuran-2-yl)amino)pyrimidin-2(1H)-one]",4.9
27,"CC[C@]1(CO)O[C@@H](n2cc(Br)c(N)nc2=O)C[C@@H]1O [compound 105, 4-amino-5-bromo-1-((2R,4S,5R)-5-ethyl-4-hydroxy-5-(hydroxymethyl)tetrahydrofuran-2-yl)pyrimidin-2(1H)-one]",0.15

# Same assay, conditions: Human LINE-1 activity inhibition; HeLa cells, reporter plasmid pYX017, Firefly/Renilla, 72 h incubation
row,Compound,IC50 [µM]
1,"C#C[C@]1(CO)OC(n2cnc3c(O)ncnc32)C[C@@H]1O (stereo partly drawn) [compound 81, 9-((4S,5R)-5-ethynyl-4-hydroxy-5-(hydroxymethyl)tetrahydrofuran-2-yl)-9H-purin-6-ol]",7.45
